Values joined by “and” are separate entries in the source; they are usually repeats but may differ in a detail not shown here. Identical values can stand only once.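 Following 48 hours of exposure in 96-well plates, responses at five concentrations were used to interpolate endpoints linearly. GI50 marks 50% less growth. TGI: total growth inhibition.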
Key:
Assay in all cases: NCI-60 cell line screen, 48 h
M14 melanoma = tested on: M14 melanoma
HOP-62 NSCLC = tested on: HOP-62 NSCLC
HOP-92 NSCLC = tested on: HOP-92 NSCLC
786-0 renal = tested on: 786-0 renal
HCT-116 colon = tested on: HCT-116 colon
SNB-19 CNS = tested on: SNB-19 CNS
HCT-15 colon = tested on: HCT-15 colon
SW-620 colon = tested on: SW-620 colon
EKVX NSCLC = tested on: EKVX NSCLC
DU-145 prostate = tested on: DU-145 prostate

| Compound | TGI (M14 melanoma) | TGI (HOP-62 NSCLC) | TGI (HOP-92 NSCLC) | TGI (786-0 renal) | TGI (HCT-116 colon) | TGI (SNB-19 CNS) | TGI (HCT-15 colon) | TGI (SW-620 colon) | TGI (EKVX NSCLC) | GI50 (M14 melanoma) | GI50 (HOP-62 NSCLC) | GI50 (DU-145 prostate) | TGI (DU-145 prostate) | GI50 (786-0 renal) | GI50 (HCT-116 colon) | GI50 (SNB-19 CNS) | GI50 (EKVX NSCLC) | GI50 (HCT-15 colon) | GI50 (SW-620 colon) | GI50 (HOP-92 NSCLC) |
| --- | --- | --- | --- | --- | --- | --- | --- | --- | --- | --- | --- | --- | --- | --- | --- | --- | --- | --- | --- | --- |
| Cc1cc(C)nc(NS(=O)(=O)c2ccc(NC(=O)COC(=O)c3cccc4c(=O)c5ccccc5[nH]c34)cc2)n1 | > 100 µM | 47.4 µM | 60.3 µM | 58.9 µM | 55 µM | 77.2 µM | > 100 µM | 83.9 µM | > 100 µM | – | – | – | – | – | – | – | – | – | – | – |
| CCN(CC)CC(O)c1cc(-c2ccc(Cl)cc2)nc2c(C)c(Cl)ccc12 (centres undefined) | 3.48 µM | 2.96 µM | – | 3.18 µM | 3.18 µM | 3.44 µM | – | – | 2.9 µM | 1.91 µM | 1.57 µM | 1.7 µM | 3.08 µM | 1.69 µM | 1.66 µM | 1.86 µM | 1.46 µM | – | – | – |
| Fc1ccc(N=C2C=CC(=Nc3ccc(F)cc3)c3ccccc32)cc1 | > 100 µM | > 100 µM | > 100 µM | > 100 µM | > 100 µM | > 100 µM | > 100 µM | > 100 µM | > 100 µM | – | – | – | – | – | – | – | – | – | – | – |
| C[C@]12CC[C@H]3[C@@H](CC[C@]4(O)C[C@@H](O[C@@H]5O[C@H](CO)[C@@H](O[C@@H]6OC[C@@H](O)[C@H](O)[C@H]6O)[C@H](O)[C@H]5O)CC[C@]34C=O)[C@@]1(O)CC[C@@H]2C1=CC(=O)OC1 | 10.5 µM | 3 µM | – | 5.19 µM | 5.77 µM | 9.27 µM | 5.12 µM | 4.67 µM | 1.93 µM | 2.38 µM | 0.702 µM | 0.902 µM | 2.31 µM | 1.42 µM | 1.47 µM | 2.53 µM | 0.781 µM | 1.6 µM | 1.35 µM | – |
| Cc1ccc(NC(=O)CC2SC(=Nc3ccc(Cl)cc3)NC2=O)cc1C (centres undefined) | 31.2 µM | > 100 µM | 27.5 µM | 32 µM | 32.9 µM | > 100 µM | 29.3 µM | 18.5 µM | 31.4 µM | – | – | – | – | – | – | – | – | – | – | – |
| COc1cc(CC(=O)O)c([N+](=O)[O-])cc1OC | > 100 µM | > 100 µM | > 100 µM | > 100 µM | > 100 µM | > 100 µM | > 100 µM | > 100 µM | > 100 µM | – | – | – | – | – | – | – | – | – | – | – |
| CCn1ncc(N=O)c1N | > 100 µM | > 100 µM | – | > 100 µM | > 100 µM | > 100 µM | > 100 µM | > 100 µM | > 100 µM | – | – | – | > 100 µM | – | – | – | – | – | – | – |
| O=C(CC1(O)C(=O)Nc2ccccc21)c1ccccc1O (centres undefined) | > 100 µM | > 100 µM | > 100 µM | > 100 µM | > 100 µM | > 100 µM | > 100 µM | > 100 µM | > 100 µM | – | – | – | – | – | – | – | – | – | – | – |
| Cc1cc(C)c(/C=N/NS(=O)(=O)c2ccccc2)c(C)c1 | > 100 µM | > 100 µM | 95.9 µM | > 100 µM | > 100 µM | – | > 100 µM | > 100 µM | > 100 µM | – | – | – | – | – | – | – | – | – | – | – |
| CC(=O)Nc1ccc(C2=N/C(=C\c3ccc(Cl)cc3)C(=O)O2)cc1 | 56.2 µM | > 100 µM | > 100 µM | 51.6 µM | > 100 µM | > 100 µM | 37.1 µM | 22.8 µM | > 100 µM | – | – | – | – | – | – | – | – | – | – | – |
| [CH3][Hg]/[N]=C(/N)NC#N | 22.9 µM | 36.6 µM | 3.84 µM | 22.4 µM | 27.9 µM | – | 12.1 µM | 5.28 µM | – | 10.6 µM | 19.4 µM | – | – | 10.2 µM | 14.4 µM | – | – | 3.02 µM | 2.23 µM | 1.78 µM |
| COc1ccc2nc3ccccc3c(NCCN(CCCl)CCCl)c2c1 | 2.28 µM | 2.97 µM | 2.43 µM | 2.4 µM | 2.08 µM | 7.66 µM | – | 2.51 µM | 8.02 µM | – | – | – | – | – | – | – | – | – | – | – |
| O=C1OCC2=C1C(c1cccc(Cl)c1)c1cc3c(cc1N2CCO)CCC3 (centres undefined) | 4.46 µM | 14.4 µM | – | 10.8 µM | 2.92 µM | 17.3 µM | 12.6 µM | 16.4 µM | 17.2 µM | 0.0366 µM | 0.0478 µM | 0.0406 µM | 0.425 µM | 0.0485 µM | 0.0447 µM | 0.0644 µM | 0.295 µM | 0.0471 µM | 0.0369 µM | – |
| CC/C(=C(/c1ccc(OCCN(C)C)cc1)c1ccc(OC(=O)CCCCCCCCC(=O)c2c(C)[nH]c(/C=C3\N=C(c4ccc[nH]4)C=C3OC)c2C)cc1)c1ccccc1 | 4.48 µM | > 100 µM | – | > 100 µM | 21.8 µM | 50.7 µM | 97.8 µM | 14 µM | – | 2.15 µM | 17 µM | 8.06 µM | > 100 µM | 5.19 µM | 3.36 µM | 12.1 µM | – | 5.12 µM | 3.72 µM | – |
| CC1(C)C(CC(=O)O)CCCC1CC(=O)O (centres undefined) | > 100 µM | > 100 µM | – | > 100 µM | > 100 µM | > 100 µM | > 100 µM | > 100 µM | > 100 µM | – | – | – | > 100 µM | – | – | – | – | – | – | – |
| CCOC(=O)C(=O)C(C#N)c1ccc(Cl)cc1 (centres undefined) | > 100 µM | > 100 µM | > 100 µM | > 100 µM | > 100 µM | > 100 µM | > 100 µM | > 100 µM | > 100 µM | – | – | – | – | – | – | – | – | – | – | – |
| O=C(Cc1nc2ccccc2o1)C(=O)Nc1ccc(Cl)cc1Cl | > 100 µM | > 100 µM | > 100 µM | > 100 µM | > 100 µM | > 100 µM | > 100 µM | > 100 µM | > 100 µM | – | – | – | – | – | – | – | – | – | – | – |
| COC(=O)C1=CC(=O)[C@@H]2CCCC[C@H]12 | > 100 µM | > 100 µM | – | > 100 µM | > 100 µM | > 100 µM | > 100 µM | > 100 µM | – | – | – | – | – | – | – | – | – | – | – | – |
| N#CCCN(c1ccc(C=O)cc1)S(=O)(=O)c1ccccc1 | > 100 µM | > 100 µM | – | > 100 µM | > 100 µM | > 100 µM | > 100 µM | > 100 µM | > 100 µM | – | – | – | – | – | – | – | – | – | – | – |
| N#Cc1cccc(C2C(=O)c3ccc(C(=O)c4ccc5c(c4)C(=O)N(c4ccc(Oc6ccc(N7C(=O)c8ccc(C(=O)c9ccc%10c(c9)C(=O)N(c9cccc(C#N)c9)C%10=O)cc8C7=O)cc6)cc4)C5=O)cc3C2=O)c1 (centres undefined) | > 100 µM | > 100 µM | > 100 µM | > 100 µM | > 100 µM | > 100 µM | > 100 µM | > 100 µM | > 100 µM | – | – | – | – | – | – | – | – | – | – | – |
| Clc1ccccc1C1SCc2nc3ccccc3n21 (centres undefined) | 59.9 µM | 64.6 µM | 31.3 µM | 88 µM | 56.3 µM | 40.6 µM | > 100 µM | > 100 µM | 81.9 µM | – | – | – | – | – | – | – | – | – | – | – |
| CC[As](CC)SCC1OC(OC(C)=O)C(OC(C)=O)C(OC(C)=O)C1OC(C)=O (centres undefined) | 24.7 µM | 38.3 µM | 13.2 µM | 28.1 µM | 32.1 µM | 33.5 µM | 26.4 µM | 16.3 µM | 37.2 µM | – | – | – | – | – | – | – | – | – | – | – |
| CC1C(O)=C(O)c2ccccc2N1O (centres undefined) | > 100 µM | > 100 µM | > 100 µM | > 100 µM | > 100 µM | > 100 µM | > 100 µM | > 100 µM | > 100 µM | – | – | – | – | – | – | – | – | – | – | – |
| Cc1ccccc1-n1c(CCl)nc2ccc(Br)cc2c1=O | 22.8 µM | 56 µM | 36 µM | 20.6 µM | 21.3 µM | 77.1 µM | 14.4 µM | 8.95 µM | 35 µM | – | – | – | – | – | – | – | – | – | – | – |
| O=C(O)CCC1c2[nH]c3ccccc3c2CCN1Cc1ccccc1 (centres undefined) | > 100 µM | – | > 100 µM | > 100 µM | > 100 µM | > 100 µM | > 100 µM | > 100 µM | > 100 µM | – | – | – | – | – | – | – | – | – | – | – |
| O=C(CC(=O)c1cccc([N+](=O)[O-])c1)C(=O)Nc1ccccc1 | > 100 µM | > 100 µM | > 100 µM | > 100 µM | > 100 µM | > 100 µM | > 100 µM | > 100 µM | > 100 µM | – | – | – | – | – | – | – | – | – | – | – |
| CN(C)CCCCNc1ccc(NCCCCN(C)C)c2c1C(=O)c1c(O)ccc(O)c1C2=O | 3.2 µM | 3.13 µM | – | 3.14 µM | 2.83 µM | 26 µM | 2.93 µM | 2.83 µM | 3.82 µM | 1.81 µM | 1.7 µM | 1.29 µM | 2.55 µM | 1.76 µM | 1.51 µM | 13.2 µM | 1.81 µM | 1.55 µM | 1.51 µM | – |
| Cc1cc(Cl)cc2c1NC(=O)C2(O)C(C(=O)c1ccccc1)c1ccccc1 (centres undefined) | > 100 µM and 55.5 µM | > 100 µM | 78.7 µM and > 100 µM | > 100 µM and 29.3 µM | 79.3 µM | > 100 µM | > 100 µM | > 100 µM | > 100 µM | 90.9 µM and 22.6 µM | – | – | – | 38.2 µM and 12.9 µM | – | – | – | – | – | 17.2 µM and 43.3 µM |
| CCCCCCCCCC[C@H](O)[C@H]1CC[C@@H]([C@@H](O)CC[C@H](O)[C@@H]2CCC(CCCCCCC[C@@H](O)CC3=C[C@H](C)OC3=O)O2)O1 (some centres undefined) | 2.93 µM and 9.75 µM | 3.28 µM and 19.4 µM | 4.34 µM and 16 µM | 3.64 µM and 20.7 µM | 2.65 µM and 20.7 µM | 4.71 µM and 19.6 µM | 30.8 µM | – | 6.86 µM and 22.4 µM | 2.73 µM | 4.55 µM | – | – | 4.9 µM | 0.507 µM | – | 5.17 µM | 7.02 µM | 4.8 µM | 1.99 µM |

— PubChem BioAssay (NCI)
